Reference: PMC4794339 (Molecular and biochemical parasitology, 2016)
Where two headings read alike, the source gives them in different places.

Tests used:
[1] = tested on: T. cruzi (Tulahuen strain) intracellular amastigotes; assay: intracellular amastigote growth inhibition in NIH-3T3 fibroblasts; type: cell-based, Trypanosoma cruzi; conditions: for changes in the percent activity: at 50 μM, highest concentration tested
[2] = target: T1, T. cruzi glucokinase (TcGlcK) (Trypanosoma cruzi, UniProt Q4E4E1); type: biochemical; conditions: for LE (ligand efficiency): LE = −RTlnKi/N, N non-hydrogen atoms, TcGlcK inhibition; for TcGlcK selectivity ratio: Ki (HsHxKIV) / Ki (TcGlcK); for fold weaker TcGlcK inhibition compared to CBZ-GlcN: ratio of Ki values
[3] = tested on: T. cruzi parasites; conditions: acute stage; cited from earlier work
[4] = tested on: T. cruzi (Tulahuen strain) intracellular amastigotes; conditions: read-out: T. cruzi IC50, reported value, cited from earlier work
[5] = tested on: T. cruzi hexokinase (TcHxK); conditions: read-out: KM for D-glucose catalysis, TcHxK; cited from earlier work
[6] = target: T2, Homo sapiens hexokinase IV (HsHxKIV) (Homo sapiens, UniProt P35557); conditions: read-out: KM for D-glucose, non-His-tagged wt-HsHxKIV; cited from earlier work
T2 sequence (P35557 12-457 limits assumed): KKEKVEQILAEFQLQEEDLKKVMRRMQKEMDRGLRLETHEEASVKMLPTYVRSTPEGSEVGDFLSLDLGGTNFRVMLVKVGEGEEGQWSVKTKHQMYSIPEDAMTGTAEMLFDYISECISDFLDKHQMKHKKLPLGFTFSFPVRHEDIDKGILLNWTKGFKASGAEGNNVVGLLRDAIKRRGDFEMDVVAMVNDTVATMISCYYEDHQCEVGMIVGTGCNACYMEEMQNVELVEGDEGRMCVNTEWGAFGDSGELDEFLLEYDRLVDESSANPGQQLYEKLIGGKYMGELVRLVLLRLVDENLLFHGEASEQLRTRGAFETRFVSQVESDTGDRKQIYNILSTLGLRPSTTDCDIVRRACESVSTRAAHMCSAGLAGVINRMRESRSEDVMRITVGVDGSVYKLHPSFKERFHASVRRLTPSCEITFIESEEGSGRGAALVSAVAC

[7] = target: T1, T. cruzi glucokinase (TcGlcK); conditions: read-out: KM for D-glucose, TcGlcK; room temperature, pH 8.5; cited from earlier work
[8] = target: T2, Homo sapiens hexokinase IV (HsHxKIV); type: biochemical; conditions: read-out: KM for D-glucose, His6-HsHxKIV; truncated construct; 22 °C, pH 7.6
[9] = target: TbHxK; conditions: read-out: Ki, TbHxK; cited from earlier work
[10] = ratio of amastigote IC50 values

O=C(N[C@H]1C(O)O[C@H](CO)[C@@H](O)[C@@H]1O)c1ccccc1 (stereo partly drawn) [BENZ-GlcN, 2-benzamido-2-deoxy-D-glucopyranose]
fold weaker inhibition effect compared to amphotericin B [1, 10]: 34 fold
fold weaker inhibition effect compared to benznidazole [1, 10]: 14 fold
LE (ligand efficiency) [2]: 0.30 kcal/mol

O=C(Cn1ccnc1[N+](=O)[O-])NCc1ccccc1 [Benznidazole, N-Benzyl-2-nitro-1H-imidazole-1-acetamide]
parasitological cures [3]: ≤ 80%
IC50 ([4]; ref 50): 1430 nM
IC50 ([4]; ref 51): 1500 nM

O=C(N[C@H]1C(O)O[C@H](CO)[C@@H](O)[C@@H]1O)OCc1ccccc1 (stereo partly drawn) [CBZ-GlcN, 2-N-carboxybenzyl-2-deoxy-D-glucosamine]
TcGlcK selectivity ratio [2]: 245
LE (ligand efficiency) [2]: 0.38 kcal/mol

OC[C@H]1OC(O)[C@H](O)[C@@H](O)[C@@H]1O (stereo partly drawn) [D-glucose]
Km [5]: 60 µM
Km [6]: 6000 µM
Km [7]: 1000 µM
Km ([2]; read-out: KM for D-glucose, His6-TcGlcK, room temperature (22 °C), pH 7.6): 948 ± 295 µM
Km [8]: 41800 ± 8700 µM

O=C(N[C@H]1C(O)O[C@H](CO)[C@@H](O)[C@@H]1O)OCC1=Cc2ccccc2S1(=O)=O (stereo partly drawn) [DBT-GlcN, 2-[[1,1-dioxobenzo[b]thiophen-2-yl]methyloxocarbonylamino]-2-deoxy-D-glucosamine]
changes in the percent activity [1]: not significant
LE (ligand efficiency) [2]: 0.27 kcal/mol
fold weaker TcGlcK inhibition compared to CBZ-GlcN [2]: 6 fold

O=C(CCc1ccc(O)cc1)N[C@H]1C(O)O[C@H](CO)[C@@H](O)[C@@H]1O (stereo partly drawn) [HPOP-GlcN, 2-[[3-(4-hydroxyphenyl)-1-oxopropyl]amino]-2-deoxy-D-glucosamine]
changes in the percent activity [1]: not significant
TcGlcK selectivity ratio [2]: 186
LE (ligand efficiency) [2]: 0.35 kcal/mol
fold weaker TcGlcK inhibition compared to CBZ-GlcN [2]: 1.8 fold

O=C(N[C@H]1C(O)O[C@H](CO)[C@@H](O)[C@@H]1O)c1cccc(Br)c1 (stereo partly drawn) [m-bromo-benzoyl glucosamine]
Ki [9]: 2800 nM
